According to publication PMC11528044 (Nature Communications, 2024):
Like-named read-outs stand apart in the source and are kept apart here. Marks after values point to notes of the source that are not given here.

What was measured:
[1] = target: T1, LdCYP5122A1 (Leishmania donovani, UniProt A0A3S7X0B6)
T1 sequence (A0A3S7X0B6 61-592): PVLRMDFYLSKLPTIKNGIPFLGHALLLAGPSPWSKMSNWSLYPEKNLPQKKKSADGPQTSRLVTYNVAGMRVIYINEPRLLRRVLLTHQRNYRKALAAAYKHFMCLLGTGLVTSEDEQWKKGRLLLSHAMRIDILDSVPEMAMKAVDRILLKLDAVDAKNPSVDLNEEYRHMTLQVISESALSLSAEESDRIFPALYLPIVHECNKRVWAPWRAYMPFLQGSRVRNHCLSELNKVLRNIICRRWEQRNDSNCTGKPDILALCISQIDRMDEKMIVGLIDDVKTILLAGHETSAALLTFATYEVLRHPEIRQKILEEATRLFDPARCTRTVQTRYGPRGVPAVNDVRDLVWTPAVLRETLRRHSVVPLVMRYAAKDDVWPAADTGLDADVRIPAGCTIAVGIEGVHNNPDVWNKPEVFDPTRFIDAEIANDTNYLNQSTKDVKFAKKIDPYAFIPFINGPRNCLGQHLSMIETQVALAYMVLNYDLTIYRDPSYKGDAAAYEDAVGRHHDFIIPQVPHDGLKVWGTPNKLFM

[2] = target: T1, LdCYP5122A1; experiment: biochemical
[3] = target: T2, LdCYP51 (Leishmania donovani, UniProt A0A3S7WRS7); experiment: biochemical
[4] = test system: intracellular amastigotes; settings: ref Wang et al. (ref. 45); cited from earlier work
[5] = test system: L. donovani strain 1S2D promastigotes (Ld1S WT and CYP5122A1 mutants); settings: 48 hours; for EC50: read-out: EC50, promastigote growth
[6] = target: T2, LdCYP51
[7] = test system: L. donovani LV82 promastigote cultures; experiment: Microscopic counts of LV82 promastigote cultures; format: cell-based, Leishmania donovani; settings: LV82 promastigotes, cell counts daily for three days
[8] = target: L. donovani CYP51 (Leishmania donovani, UniProt A0A3S7WRS7); experiment: UV-Vis difference binding spectra of ligands with purified recombinant CYP51
[9] = target: T3, L. donovani CYP5122A1 (Leishmania donovani, UniProt A0A3S7X0B6); experiment: UV-Vis difference binding spectra of ligands with purified recombinant CYP5122A1
T3 sequence (A0A3S7X0B6 61-592): T1 sequence (A0A3S7X0B6 61-592)

[10] = test system: L. donovani strain 1S2D promastigotes (Ld1S WT and CYP5122A1 mutants); experiment: microbe, parasite or virus in culture; settings: Leishmania donovani, 48 h
[11] = test system: intracellular L. donovani parasites; experiment: Intracellular L. donovani in infected peritoneal macrophage assay; format: cell-based, Leishmania donovani; settings: Supplementary Fig. 12
[12] = test system: intracellular amastigotes of L. infantum; settings: cited from earlier work; for EC50: read-out: EC50, elimination of intracellular amastigotes of L. infantum
[13] = test system: intracellular L. major and L. amazonensis; settings: 10 μM; cited from earlier work
[14] = test system: sterol profile of LV82 promastigotes; experiment: LC-MS/MS sterol analysis of inhibitor-treated LV82 promastigotes; format: cell-based, Leishmania donovani; settings: 50 μM voriconazole vs. DMSO, 24 hr
[15] = test system: L. donovani LV82 promastigotes; experiment: microbe, parasite or virus in culture; settings: Leishmania donovani, 72 h, read-out: EC50 (L. donovani)

T2 sequence (A0A3S7WRS7 32-480): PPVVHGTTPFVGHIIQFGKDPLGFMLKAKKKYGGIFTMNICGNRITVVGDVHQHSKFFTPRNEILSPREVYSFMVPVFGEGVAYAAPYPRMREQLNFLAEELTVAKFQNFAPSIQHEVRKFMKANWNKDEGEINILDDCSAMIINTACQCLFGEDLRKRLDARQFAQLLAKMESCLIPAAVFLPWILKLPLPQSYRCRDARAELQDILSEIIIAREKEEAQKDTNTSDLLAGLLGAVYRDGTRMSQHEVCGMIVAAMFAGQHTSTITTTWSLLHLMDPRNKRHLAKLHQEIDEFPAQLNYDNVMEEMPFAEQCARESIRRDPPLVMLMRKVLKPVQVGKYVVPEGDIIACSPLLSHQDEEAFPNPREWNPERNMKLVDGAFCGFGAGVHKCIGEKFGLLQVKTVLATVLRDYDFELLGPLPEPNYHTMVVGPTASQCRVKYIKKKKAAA
Chain of L. donovani CYP51 (A0A3S7WRS7 32-480): as above

## CCCCCCCCCCCCCCCCOP(=O)([O-])OCC[N+](C)(C)C [Miltefosine]
[1]
  SI (selectivity index) = IC50 against LdCYP5122A1/IC50 against LdCYP51: 3.5
[2]
  IC50: 43000 ± 1000 nM
[3]
  IC50: 12000 ± 1000 nM
[4]
  IC50 vs. intracellular amastigotes (printed in column EC50 (L. donovani)): 2.7^e μM

## CC(C)Oc1cc(NC(=N)c2ccccn2)ccc1-c1ccc(-c2ccc(NC(=N)c3ccccn3)cc2OC(C)C)o1 [DB766]
[5]; CYP5122A1 overexpressors
  EC50: ~12 nM
[5]; WT and Ld22A1 + /‒
  EC50: 1 to 4 nM
[6]; 30 μM
  % inhibition of LdCYP51 at 30 μM: <30% inhibition at 30 μM
[1]
  Selectivity for CYP5122A1 over CYP51: > 30 fold
[1]; read-out: IC50 (LdCYP5122A1), mean ± standard deviation (n = 3)
  IC50: 1000 ± 100 nM
[4]
  IC50 vs. intracellular amastigotes (printed in column EC50 (L. donovani)): 0.036^f μM

## CC[C@@H]([C@H](C)O)n1ncn(-c2ccc(N3CCN(c4ccc(OC[C@@H]5CO[C@@](Cn6cncn6)(c6ccc(F)cc6F)C5)cc4)CC3)cc2)c1=O [Posaconazole]
[7]
  Leishmanicidal vs. leishmanistatic effect: leishmanistatic effect
[5]; Ld1S WT, bi-phasic response
  Concentration needed to inhibit growth further: more than 12 μM
[8]
  Binding mode with CYP51 (difference binding spectrum): type II binding
[9]
  Binding mode with CYP5122A1 (difference binding spectrum): type II-like binding
[10]; read-out: Concentration sufficient to reach EC50
  EC50: 100 nM
[10]; read-out: EC50, promastigote growth
  EC50: ~25000 nM
[11]
  Effect on intracellular L. donovani parasites: more effective than fluconazole

## NC[C@@H]1O[C@H](O[C@H]2[C@@H](O)[C@H](O[C@@H]3[C@@H](O)[C@H](N)C[C@H](N)[C@H]3O[C@H]3O[C@H](CO)[C@@H](O)[C@H](O)[C@H]3N)O[C@@H]2CO)[C@H](N)[C@@H](O)[C@@H]1O [Paromomycin]
[4]
  IC50 vs. intracellular amastigotes (printed in column EC50 (L. donovani)): >50^e μM

## C[C@@H](c1ncncc1F)[C@](O)(Cn1cncn1)c1ccc(F)cc1F [Voriconazole]
[12]
  EC50, elimination of intracellular amastigotes of L. infantum: failed
[8]
  Binding mode with CYP51 (difference binding spectrum): type II binding
[13]
  Inhibition of intracellular parasites: < 50%
[6]
  Selectivity for CYP51 over CYP5122A1: > 1176 fold
[1]
  SI (selectivity index) = IC50 against LdCYP5122A1/IC50 against LdCYP51: >1176
[2]
  IC50: > 100000 nM
[2]; read-out: % inhibition of CYP5122A1 at 100 μM
  inhibition at 100 µM: < 28%
[14]
  4,14-Dimethylzymosterol level normalized to DMSO-treated parasites: 17 ± 2
  4CH2OH-LS level normalized to DMSO-treated parasites: 0.83 ± 0.09
  5-Dehydroepisterol level normalized to DMSO-treated parasites: 0.078 ± 0.043
  7-Dehydrodesmosterol level normalized to DMSO-treated parasites: 0^d,**
  14-Methylfecosterol level normalized to DMSO-treated parasites: Accumulated^a,***
  14-Methylzymosterol level normalized to DMSO-treated parasites: 8.0 ± 1.0
  Cholesterol (exogenous) level normalized to DMSO-treated parasites: 0.88 ± 0.07
  Ergosta-5,7-dienol level normalized to DMSO-treated parasites: 0.39 ± 0.11
  Ergostatetraenol level normalized to DMSO-treated parasites: 0.086 ± 0.027
  Ergosterol level normalized to DMSO-treated parasites: 0.30 ± 0.08
  FF-MAS level normalized to DMSO-treated parasites: Not detected
  Lanosterol level normalized to DMSO-treated parasites: 1.6 ± 0.2
  T-MAS level normalized to DMSO-treated parasites: Not detected
[14]; not separated from cholesta-7,24-dienol
  Zymosterol level normalized to DMSO-treated parasites: 0.067 ± 0.034
[14]; not separated from episterol and fecosterol
  4-Methylzymosterol level normalized to DMSO-treated parasites: 0.18 ± 0.06
[15]
  EC50: > 100000 nM
[9]
  Binding mode with CYP5122A1 (difference binding spectrum): no specific responses
[3]
  IC50: 85 ± 17 nM

## Clc1ccc(C(Cn2ccnc2)OCc2ccsc2Cl)c(Cl)c1 (centres unmarked) [Tioconazole]
[12]
  EC50: 4000 ± 200 nM
[1]
  SI (selectivity index) = IC50 against LdCYP5122A1/IC50 against LdCYP51: 20
[2]
  IC50: 1100 ± 200 nM
[15]
  EC50: 9500 ± 600 nM
[3]
  IC50: 54 ± 8 nM

## Clc1ccc(C(Cn2ccnc2)OCc2ccc(Sc3ccccc3)cc2)c(Cl)c1 (centres unmarked) [Fenticonazole]
[12]
  EC50: 2900 ± 300 nM
[1]
  SI (selectivity index) = IC50 against LdCYP5122A1/IC50 against LdCYP51: 8.0
[2]
  IC50: 650 ± 80 nM
[15]
  EC50: 5600 ± 300 nM
[3]
  IC50: 81 ± 2 nM
